Assay results taken from US6673625B2, “Saccharide sensing molecules having enhanced fluorescent properties” (The Regents of the University of California, priority 1999, dated 2004).

Key:
[1] = Cyclic voltammetry (glassy carbon, Ag/AgCl reference, 0.1 M NBu4ClO4 in acetonitrile); format: physicochemical
Procedure: Samples for FT IR spectroscopy were prepared as solutions in CHCl3, and only the C═O stretches are reported. Unless otherwise stated, all NMR spectra were recorded at 500 MHz for ^1H and 125 MHz for ^13C at 20-25° C. using CDCl3 as the solvent. Unless stated otherwise, mass spectra were obtained using electrospray ionization (50 V) with a 50/50 methanol/water solvent mixture with ^1% acetic acid added. Cyclic voltammetry was conducted using a glassy carbon working electrode, platinum counter electrode, and Ag/AgCl reference electrode and carried out in a 0.1 M solution of NBu4ClO4 in acetonitrile.
Summarized Syntheses. As the syntheses are described as a series of analogous compounds with general procedures are given below. Cyclic voltammetry was conducted using a glassy carbon working electrode, platinum counter electrode, and Ag/AgCl reference electrode and carried out in a 0.1 M solution of NBu4ClO4 in acetonitrile. Samples for fluorescence were prepared as 1.00 mM stock solutions in MeOH. A 30.0 μL aliquot of solution was then added to 3.000 mL of the appropriate solvent mixture (a combination of methanol and phosphate buffered saline—PBS). Relative quantum yields were determined by the relative output of equimolar solutions of two compounds using 3ay as a reference. Glucose additions were performed by the addition of a concentrated solution of glucose in PBS to a stirred solution of the fluorescent molecule in methanol/PBS.
General. All reactions were performed under an atmosphere of N2, followed by work-up in air. Protected boronate esters were stored under vacuum to prevent slow hydrolysis from atmospheric moisture. Unless stated otherwise, all chemicals were purchased from commercial suppliers. Anhydrous solvents from Aldrich were used for all reactions. Starting compounds known in the art such as N-n-butyl-4-chloronaphthalene-1,8-dicarboximide(1ax), 2,2-dimethylpropane-1,3-diyl[o-(bromomethyl) phenyl]boronate, were prepared by literature methods (see e.g. Daffy et al. Chem-Eur J 1998, 4, 1810-1815; de Silva et al., Chem Rev 1997, 97, 1515-1566). Samples for FT IR spectroscopy were prepared as solutions in CHCl3, and only the C═O stretches are reported here. All mass spectra were obtained using electrospray ionization (ESI/MS) with an ionization potential of 50V and a solvent system consisting of 1% acetic acid in 50/50 methanol/water. Cyclic voltammetry was conducted using a glassy carbon working electrode, platinum counter electrode, and Ag/AgCl reference electrode and carried out in a 0.1 M solution of NBu4ClO4 in acetonitrile. Samples for fluorescence measurements were prepared as 1.00 mM stock solutions in MeOH. A 30.0 μL aliquot of solution was then added to 3.000 mL of the appropriate solvent mixture (a combination of methanol and phosphate buffered saline—PBS) giving a final concentration of 10.0 μM for each complex. Changes in pH were carried out by the addition of small volumes of concentrated hydrochloric acid, acetic acid, or sodium hydroxide. Glucose additions were performed by the addition of a concentrated solution of glucose in PBS to a stirred solution of fluorophore in a cuvette. Relative quantum yield measurements were carried out by measuring the relative intensities of equimolar solutions (10.0 μM) of two fluorophores. Compound 3ay was used as the reference.

[2] = Rehm-Weller estimate of free energy of photoinduced electron transfer (PET); format: physicochemical
Text: The search for new fluorescent glucose transducers based on photoelectron transfer (PET) requires, among other things, an understanding of the electrochemistry of any potential donor-acceptor pair. The free energy of PET (ΔGel) can be calculated using the Rehm-Weller equation shown below:
ΔGel(kcal mol^−1)=23.06[E^0(D^+/D)−E^0(A/A^−)]−wp−wr−ΔG00 where E^0(D^+/D) is the oxidation potential of the donor, E^0(A/A^−) is the reduction potential of the acceptor, and ΔG00 is the free energy corresponding to the equilibrium energy E00 (see e.g. Kavarnos, G. J. In Fundamentals of photoinduced electron transfer, VCH Publishers: New York, N.Y., 1993; p Chapter 1 and Rehm and Weller, Ist. J. Chem. 1970, 8, 259). The quantities wp and wr are Coulombic terms for the products and reactants, and ate found to be small in polar solvents. To simplify predictions, we assume wp and wr to be zero, and estimate E00 as the energy corresponding to [λmax(ex)+λmax(em)]/2 for each fluorophore.
ΔGPET=23.06[E^0(Z^oxidation)−E^0(F^reduction)]−ΔE00],
The electrochemical potentials can be measured using the individual molecular groups before assembling the complete molecule.
Electrochemistry. The search for new fluorescent glucose transducers based on PET requires, among other things, an understanding of the electrochemistry of any potential donor-acceptor pair. The free energy of PET (ΔGel) can be calculated using the Rehm-Weller equation shown in eq 1, where E^0(D^+/D) is the oxidation potential of the […]
ΔGe(kcal mol^−1)=23.06[E^0(D^+/D)−E^0(A/A^−)]−wp−wr−ΔG00 (1) donor, E^0(A/A^−) is the reduction potential of the acceptor, and ΔG00 is the free energy corresponding to the equilibrium energy E00. The quantities wp and wr are Coulombic terms for the products and reactants, and are found to be small in polar solvents. In our case, wr=0 since the reactants are neutral. To simplify predictions, we assume wp to be zero and estimate E00 as the energy corresponding to [λmax(ex)+λmax(em)]/2 for each fluorophore. […]
it is possible to estimate the free energy of photoinduced electron transfer (PET) in these systems (see e.g. Kavamos, G. J. Fundamentals of Photoinduced Electron Transfer, VCH: New York, 1993; pp 37-40). E0(D^+/D) and E^0(A/A^−) correspond to the […] of the electron donor (i.e. amine) and electron acceptor (i.e. fluorophore), respectively. The quantity ΔG00, is the equilibrium energy, which we estimate as the energy corresponding to the equilibrium wavelength λ00. As an estimate of λ00, we use the average of the excitation and emission maxima for each fluorophore. Smaller solvent-dependent work terms for the Coulombic interaction between the reactants and products are left out for simplicity. Since the mechanism of fluorescence switching in these systems depends on PET, this gives us a rough estimate of which fluorophores should give the best response to glucose.

[3] = Glucose sensitivity testing of chloro-oxazine-one boronate (COB); conditions: glucose zero to 600 mg/dL; 66% MeOH/buffer pH 7.4; 450/560 nm
Procedure: To investigate the conjugated organic heterocyclic ring system compounds as fluorophores, an oxazine-one system was studied. An oxazine-one is described as a neutral (uncharged) precursor to a charged oxazine dye. The relevant values for the COB system for the Rehm-Weller equation are: ΔGPET=−12.1 kcal/mole, E^0(Z^ox)=0.88V, E^0(F^red)=−1.10V, and ΔE00=57.8 kcal/mole. The compound's response to glucose in several solvent systems was characterized. A stock solution of the compound was prepared by dissolving 5.7 mg in 5 mL of methanol. Samples were prepared by adding 30 μL of this stock solution to 3 mL of solvent.
Glucose sensitivity testing was performed on the oxazine-one compound. Samples were prepared as described above and titrated with 30 μL aliquots of concentrated glucose solution (300 mg/mL). […] Following an initial period in which the baseline fluorescence level was determined, four 30 μL aliquots of glucose were introduced into the sample resulting in a final glucose concentration of approximately 1200 mg/dL. In this solvent system, glucose transduction yields a 45% increase in the fluorescence intensity as the glucose concentration is increased from zero to 600 mg/dL.
COB's response was evaluated in several solvent systems. […]
Based on these spectra, excitation and emission wavelengths of 450 nm and 560 nm, respectively, were chosen for subsequent steady-state fluorescence tests. […]

## 6-chloro-5H-benzo[a]phenoxazin-5-one boronate [COB]
[1]
  E^0(F^red), reduction potential of the fluorophore: −1.10 V
  E^0(Z^ox), oxidation potential of the switch: 0.88 V
[2]
  ΔE00, energy of the excited state fluorophore: 57.8 kcal/mol
[2]; simplified Rehm-Weller equation
  ΔGPET: -12.1 kcal/mol
[3]
  increase in the fluorescence intensity: 45%
